Consider seven compounds from BindingDB's records for doi:10.7270/Q22R3Q4F (Broad Institute, 2010).

Bounds are passed on as bounds.

This assay concerns the target T1, Alkanal monooxygenase alpha chain (Vibrio harveyi, UniProt P07740).
T1 sequence (P07740 whole entry): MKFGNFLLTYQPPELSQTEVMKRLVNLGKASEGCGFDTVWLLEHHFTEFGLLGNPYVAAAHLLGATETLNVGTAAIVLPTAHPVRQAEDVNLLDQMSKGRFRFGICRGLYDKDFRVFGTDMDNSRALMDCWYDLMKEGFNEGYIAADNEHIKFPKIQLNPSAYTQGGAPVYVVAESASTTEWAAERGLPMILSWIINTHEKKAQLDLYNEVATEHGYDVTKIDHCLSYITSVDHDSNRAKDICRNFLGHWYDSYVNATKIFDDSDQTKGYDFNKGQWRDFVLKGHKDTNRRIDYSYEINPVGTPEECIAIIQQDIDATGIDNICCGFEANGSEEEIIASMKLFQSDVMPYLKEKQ
Nature of the assay: bacterial growth suppression, V. harveyi, absorbance, dose retest, confirmation (AID 2723).
Turning to `COc1cc(NC(=O)CN2C(=O)NC(c3ccccc3)(c3ccccc3)C2=O)cc(OC)c1` [MLS001176525], the EC50 (as a rule, the concentration needed to bring the measured effect to its halfway point) was over 160 µM.
The result for `C=Cn1c(C(=O)O)ccc1-c1ccc(CC)cc1` reads over 160 µM; that for `CCc1ccc(S(=O)(=O)Nc2ccc(Br)cn2)cc1` [MLS001211346], over 160 µM.
Under `CCCc1ccc(S(=O)(=O)N(C)S(=O)(=O)c2ccc(F)cc2)cc1` [N-(4-fluorophenyl)sulfonyl-N-methyl-4-propylbenzenesulfonamide] stands 7.78 µM.
Compound `CN(C)S(=O)(=O)c1ccc(NC(=S)NC(=O)Cc2ccccc2)cc1` [N-[[4-(dimethylsulfamoyl)phenyl]carbamothioyl]-2-phenyl-ethanamide] showed an EC50 of over 160 µM.
Under `Cn1cnc(S(=O)(=O)Nc2ccc(OC(F)(F)F)cc2)c1` [SMR000314513] stands over 160 µM.
Under `Cc1cccc(NS(=O)(=O)c2ccc(Oc3ccccc3)cc2)n1` [SMR000071466] stands over 160 µM.
